Data set [1] has as its system C57/BL mice. Put plainly: Acute effects in the tail-flick test (Experiment 2). The data set is classed as in vivo. The procedure: (§1) Male C57/BL mice (IMP, Lodz, Poland), 22-24 g of body weight were group-housed in the standard laboratory cages and kept in a temperature-controlled colony room (21±2° C.) with a 12-hour light/dark cycle (light on: 07:00, off: 19:00). Commercial food and tap water were available ad libitum. Each experimental group consisted of 7-28 mice per treatment. All mice were used only once.
(§2) The intensity of the heat stimulus was adjusted so that the baseline tail-flick latency was ˜3 seconds. […] Each response assessment consisted of two separate measurements taken at different portions of the tail (spaced by 1.5-2 cm) and separated by 15 seconds. The mean of these responses was used for subsequent comparisons.
The N is given in brackets. Presented in FIG. 5 are mean±S.E.M. Area Under Curve (AUC) values calculated on the same data.

Data set [2] has as its system C57/BL mice. Put plainly: animal or person. The data set is classed as in vivo. The note with it: for ED50: Mus musculus, sc. As to the method:
as §1, §2

The subject of data set [3] is Brown Norway rats (Rattus norvegicus). Put plainly: Optic nerve transection in rats, optic nerve fiber counting. It is filed as in vivo. The note with it: for Fiber Number / Percent Difference (fiber number, transected vs normal eye): 10 mg/kg i.p. daily. As to the method: (§3) All experiments complied with the Association for Research in Vision and Ophthalmology Statement for the Use of Animals in Ophthalmic and Vision Research. 82 male Brown Norway rats (Rattus norvegicus), each weighing approximately 250 gm, were treated using procedures approved by the Animal Care Committee of the Johns Hopkins University School of Medicine. The rats were housed with a 12 hour light/12 hour dark cycle and fed ad libitum.
The optic nerve was transected unilaterally in 26 rats under intraperitoneal pentobarbital anesthesia. The conjunctiva was opened with scissors and the optic nerve was exposed by traction on extraocular muscles. The transection was performed with microscissors 5 mm posterior to the globe, with specific attention to avoidance of injury to major ocular blood vessels. Immediately after transection, the retina was examined ophthalmoscopically to assure that the retinal arterial blood supply was not disrupted. The conjunctiva was closed with absorbable suture and the eye dressed with antibiotic ointment. Beginning on the day of transection, the rats were treated daily with intraperitoneal injections of either a vehicle (9 rats with 50 mM HEPES-buffered saline) or a NAALADase inhibitor (8 rats with 10 mg/kg of Compound A and 9 rats with 10 mg/kg of Compound B). 5 saline treated rats, 3 Compound A treated rats and 4 Compound B treated rats were sacrificed at 2 weeks, and the remaining rats at 4 weeks, after transection.
(§4) The rats were sacrificed by exsanguination under deep pentobarbital anesthesia. They were perfused through the heart with 2% paraformaldehyde/2% glutaraldehyde in 0.1 M phosphate buffer, pH 7.2, and the eyes with attached optic nerves were removed. Cross-sections of the optic nerves from both experimental (glaucoma or transection) and control eyes was removed 1.5 mm posterior to the globe, 1 mm in thickness, and post-fixed in 2% osmium tetroxide in buffer. These were processed into epoxy resin, sectioned at 1 micron and stained with toluidine blue.
(§5) The area of each optic nerve cross-section was measured by outlining its outer border at 10× magnification on an image analysis system (Universal Imaging Corp., Westchester, Pa.) with Synsys digital camera and Metamorph software. Three area measurements were taken and the mean value was determined. To measure the density and fiber diameter distributions, images were captured with a 100× phase contrast objective from 10 different areas of each nerve. These were edited to eliminate non-neural objects and the size of each axon internal to the myelin sheath (its minimum diameter) and the density of axons/square mm were calculated for each image and nerve. The mean density was multiplied by total nerve area to yield fiber number for each nerve. The total fiber number in glaucoma or transection nerves was compared to the normal, fellow eye of each rat to yield a percent loss value. The number of axons counted among the 10 images was approximately 20% of the 80-90,000 axons in normal rat nerves. The person measuring the number of axons was masked to the protocol conducted on the nerves.
Percent Difference=mean percent difference in fiber number between glaucoma and normal eye in each rat (positive value indicates fewer fibers in the glaucoma eye).

In data set [4] the test system is BB/W rats. Put plainly: Retinal disorder (diabetic retinopathy) in BB/W rats: BM thickness and E/P ratio after 6 months of daily treatment. The note with it: for BM THICKNESS (nm) ± SD: retinal capillaries. It is filed as in vivo, rat. The procedure: Four groups of rats received daily insulin injections to maintain their glucose levels at about 350 mg/dl. Starting at the onset of hyperglycemia, NAALADase inhibitor 2-(3-sulfanylpropyl)-pentanedioic acid (Compound B) was administered daily for 6 months to one group of BB/W rats at a dose of 10 mg/kg and to a second group of BB/W rats at a dose of 30 mg/kg. A third group of BB/W rats and a fourth group of non-diabetic rats received daily vehicle treatment (50 mM Hepes buffered saline).
After 6 months of treatment with Compound B or vehicle treatment, the rats were sacrificed and their eyes were removed. From each rat, one eye was processed for elastase digest while the other eye was processed for transmission electron microscopy (TEM) and basement membrane (BM) thickness.
Retinal digests were prepared using elastase on retinas as described in Layer, N., Invest Ophthalmol Vis Sci (1993) 34:2097. Eyes were removed from recently killed BB/W rats (n=30) and age-matched transgenic controls (n=12). The retinas (n=12) were fixed at room temperature by immersing the whole eye (slit at limbus) in 4% (w/v) paraformaldehyde in 50 mmol/L Na—K phosphate buffer with 8% sucrose. The fixed retinas were rinsed in deionized water and were incubated for 3 minutes in a 37° C. agitating water bath in 40 units/mL elastase in Na—K phosphate buffer with 150 mmol/L NaCl and 5 mmol/L ethylenediamine tetraacetic acid (EDTA), pH 6.5. The tissues were washed overnight in 100 mmol/L Tris-HCL (pH 8.5) and then transferred to deionized water for removal of the loosened vitreous and digested neural elements by gentle agitation using the sides of closed forceps and the sides and ends of very fine brushes. After all loose tissues were removed, the retinas were incubated once more in fresh enzyme for 3 minutes and then subjected to a second overnight wash at room temperature in Tns-HCl buffer. On the third day, the retinas were again transferred to deionized water for additional removal of digested neural elements. The vascular network that was completely free of nonvascular elements was mounted flat by flotation in Ca^2+ and Mg^2+ free Dulbecco's Phosphate-Buffered Saline (PBS) on siliconized slides (#S1308, Oncor, Gaithersburg, Md.). After air drying in a dust free environment, the mounts of the retinal microvasculature were stained using periodic acid Schiff reaction and hematoxylin counterstaining, as described in Luna, L., ed. Manual of Histologic Staining Methods of the Armed Forces Institute of Pathology (1968) McGraw-Hill, New York, N.Y. The preparations were then examined by light microscopy and photographed.
The stained and intact retinal whole mounts were coded and counted, as described in Cuthbertson, R., Invest Ophthalmol Vis Sci. (1986) 27:1659-1664).
Ten fields at ×100 magnification were counted for endothelial and pericyte cells using previously described morphologic criteria (see Kuwabara, T., Arch Ophthalmol. (1960) 64:904-911). In every sample, at least 200 cells were counted from the mid zone of the retina. Mean values for endothelial cell/pericyte (E/P) ratios were initially calculated in 3 retinas from each of the 4 groups of rats.
Each eye was fixed in 4% glutaraldehyde and dissected free of sclera and choroids, then trimmed and postfixed in 1% osmium tetroxide. After dehydration and embedding, thin sections were stained with uranyl acetate and lead citrate. Initially, BM thickness of retinal capillaries from 3 non-diabetic rats receiving vehicle, 3 diabetic animals receiving 10 mg/kg Compound B, and 3 diabetic rats receiving 30 mg/kg Compound B were compared with 3 diabetic rats receiving a vehicle. At least 10 capillaries per eye from the inner nuclear and plexiform layers were photographed at a magnification of 10,000×. Exact magnification was determined for each set of negatives with a 28,800 line/inch calibration grid. Negatives were enlarged 3×. […]

Data set [5] deals with Brown Norway rats (Rattus norvegicus). Put plainly: Experimental rat glaucoma (unilateral IOP elevation), optic nerve fiber counting. It is filed as in vivo. The note with it: 10 mg/kg i.p. daily; for Fiber Number: glaucoma eye optic nerve; for Percent Difference (fiber number, glaucoma vs normal eye): positive value = fewer fibers in glaucoma eye. The procedure:
as §3
Unilateral elevation of intraocular pressure (“IOP”) was produced in 56 rats by microinjection of hypertonic saline into episcleral veins, following procedures described in Morrison, J. et al., IOVS (March 1998) 39:526-531. Beginning on the day of IOP elevation, the rats were treated daily with intraperitoneal injections of either a vehicle (23 rats with 50 mM HEPES-buffered saline) or a NAALADase inhibitor (11 rats with 10 mg/kg of Compound A and 22 rats with 10 mg/kg of Compound B). 11 saline treated rats, 11 Compound A treated rats and 11 Compound B treated rats were sacrificed at 8 weeks, and the remaining rats at 12 weeks, after initial IOP elevation.
as §4
as §5, with “the nerves. […]” for “the nerves.”

Data set [6] relates to NAALADase. The note with it: NAAG as substrate of NAALADase; cited from earlier work.
Where [7] appears, read: 2 weeks survival after transection.
The mark [8] stands for this setting: 4 weeks survival after transection.
[9] abbreviates: diabetic BB/W rats, 10 mg/kg daily for 6 months, 10 mg/kg.
The mark [10] stands for this setting: diabetic BB/W rats, 10 mg/kg daily for 6 months, listed as NAALADASE INHIBITOR, 10 mg/kg.
Setting [11] is: diabetic BB/W rats, 30 mg/kg daily for 6 months, 30 mg/kg.
Where [12] appears, read: diabetic BB/W rats, 30 mg/kg daily for 6 months, listed as NAAALADASE INHIBITOR, 30 mg/kg.
[13] abbreviates: high dose 30 mg/kg, vs diabetic vehicle.
Setting [14] is: low dose 10 mg/kg, vs diabetic vehicle.

Entries after “also recorded” stand apart in the source; their conditions may differ. Marks after values point to notes of the source that are not given here. Peptide text beside a SMILES is read from it.

On to `O=C(O)CCC(CP(=O)(O)O)C(=O)O` (stereo not drawn) [Compound 2-PMPA, 2-(phosphonomethyl)pentanedioic acid], for which the “effect on antinociceptive effects of morphine” value in data set [1] (100 mg/kg 2-PMPA i.p. 30 min before 1.5 or 3 mg/kg morphine s.c.) was “did not affect antinociceptive effects; also recorded: did not differ”. Moreover, in data set [1] (100 mg/kg of 2-PMPA i.p. + placebo), the “tail-flick responses (AUC) compared to placebo+placebo treatment” value is “did not affect tail-flick responses; also recorded: did not differ from placebo+placebo treatment”. The “effect on development of morphine tolerance” value in data set [2] (50 or 100 mg/kg of 2-PMPA prior to each dose of morphine) is recorded as “attenuated the development of morphine tolerance”.

On to `O=C(O)CCC(CCCS)C(=O)O` (stereo not drawn) [Compound B, 2-(3-sulfanylpropyl)pentanedioic acid], for which the “remaining axons relative to saline-treated rats” value in data set [3] (2 weeks after transection) is recorded as “twice”. Besides, the “Fiber Number” value in data set [3] (setting [7]) is listed as 19,550 ± 11,383; in data set [3] (setting [8]) it was 5,162 ± 5,017; in data set [5] (8 week group), 80785 ± 2121**; in data set [5] (12 week group) it was 90504 ± 1718. Moreover, the “Percent Difference (fiber number, transected vs normal eye)” value stood at 75.3 ± 14.8% in data set [3] (setting [7]) and 93.4 ± 6.2% in data set [3] (setting [8]). In addition, the “BM THICKNESS (nm) ± SD” value in data set [4] (setting [9]) was 82.3±4.07 nm; in data set [4] (setting [10]), 82.3 ± 4.07 nm; in data set [4] (setting [11]) it was 71.7±4.07 nm; in data set [4] (setting [12]), 71.7 ± 4.07 nm. Moreover, the “E/P RATIO (endothelial cell/pericyte)” value in data set [4] (setting [9]) is recorded as 2.5±0.5; in data set [4] (setting [10]), 2.5 ± 0.5; in data set [4] (setting [11]) it was 2.0±0.9; in data set [4] (setting [12]), 2.0 ± 0.4. Further, the “effect on body weight” value in data set [4] (diabetic BB/W rats, 6 months of treatment) was “no effect”. In addition, the “reduction in BM thickness” value in data set [4] (setting [13]) is given as 29.0%. The “reduction of endothelial cell to pericyte ratios” value in data set [4] (setting [13]) was found to be 33.0%; in data set [4] (setting [14]), 16.7%. For the same compound, the “decrease in BM thickness” value in data set [4] (setting [14]) is 18.5%. Moreover, the “Percent Difference (fiber number, glaucoma vs normal eye)” value in data set [5] (8 week group) was −0.82 ± 2.97%; in data set [5] (12 week group) it was −3.21 ± 2.86%.

For the compound `CC12CC3CC(C)(C1)CC(N)(C3)C2` [Memantine, memantine], in data set [2] (mouse, in vivo), the “effect on development of morphine tolerance” value is recorded as “attenuated the development of morphine tolerance; also recorded: produced an inhibition of morphine tolerance”.

Regarding `CN1CC[C@]23c4c5ccc(O)c4O[C@H]2[C@@H](O)C=C[C@H]3[C@H]1C5` [Morphine, morphine], the ED50 was found to be 3 mg/kg in data set [1] (Mus musculus, sc, read-out: antinociceptive ED50 dose); 1.49 ± 0.26 mg/kg in data set [2] (24 h, read-out: Test #1 ED50 (morphine antinociceptive potency)); 8.85 ± 2.22 mg/kg in data set [2] (read-out: Test #2 ED50 (morphine antinociceptive potency)).

As for `CC(=O)N[C@@H](CC(=O)O)C(=O)N[C@@H](CCC(=O)O)C(=O)O` [NAAG, N-acetyl-aspartyl-glutamate] (Ac-Asp-Glu-OH), the Michaelis-Menten constant (Km) in data set [6] was 0.54 µM.

The values above are taken from US7553866B2, “Thiolactones” (Eisai Corporation of North America, priority 2003, dated 2009).
